Laboratory results taken from patent US20030181520A1, “Methods of reversing and preventing cardiovascular pathologies” (priority 2001, published 2003).

Columns and labels:
[1] = Antioxidant activity (preclinical comparison)
[2] = system: reference vessels (coronary arteries that were not targets of angioplasty); assay: Clinical trial: IVUS analysis of lumen volume of reference vessels (non-PCI site); type: in vivo, human; details: for lumen volume change of reference vessels: IVUS, non-PCI site
Description: (§1) The primary endpoint of the trial was the size of the lumenal area (coronary artery opening), as measured by intravascular ultrasound (IVUS), six months after angioplasty. […] Angiographic restenosis was also assessed using a standard definition of restenosis as measured by quantitative coronary angiography (QCA). […] An IVUS analysis of reference vessels (blood vessels of coronary arteries that were not targets of angioplasty procedures) was also carried out. The data indicated lumen volumes increased for patients who received either of the top two doses of Compound A. In contrast, patients on placebo had decreased lumen volumes, consistent with the expected progression of atherosclerosis.
(§2) IVUS examinations were conducted at 30 Mhz using 3.5 French CVIS catheters. All IVUS examinations were preceded by IC Ntg 0.3 mg. Results of these examinations are found in FIGS. 1-6.

[3] = system: coronary artery opening at the site of angioplasty; assay: Clinical trial: minimal luminal area by intravascular ultrasound (IVUS) six months after angioplasty; type: in vivo, human; details: for mean minimal luminal area: IVUS six months after angioplasty
Description: as §1
A study was conducted to determine whether Compound A reduces restenosis as assessed by intravascular ultrasound (IVUS) when administered for 2 weeks before and 4 weeks after percutaneous coronary intervention (PCI) with or without stent placement. A multi-center, double-blind placebo-controlled randomized trail with 5 treatment groups:
(§3) Treatment of the above was given 2 weeks prior to and 4 weeks after PCI. PCI was performed on greater than or equal to 1 native artery with greater than or equal to 1 de novo lesion of greater than or equal to 50%. All PCI procedures (with or without stent placement) and post-PCI management were performed according to recognized current clinical practice. 0.3 mg of nitroglycerin(Ntg) intracoronary (IC) were administered at every angiogram. Quantitative Coronary Angiography (QCA) measurements were taken prior to-PCI, 10 minutes post-PCI, and final follow-up (approximately 6 months).
as §2

VCAM-1 = VCAM-1 gene expression inhibition; type: cell-based; details: compound A at low micromolar concentrations, probucol at very high concentrations
MCP-1 = MCP-1 gene expression inhibition; type: cell-based; details: compound A at low micromolar concentrations, probucol at very high concentrations
stented arteries = assay: Clinical trial: angiographic restenosis by quantitative coronary angiography (QCA); type: in vivo, human; details: for rate of angiographic restenosis in stented arteries: QCA; for restenosis rate reduction: relative to placebo (37.5 percent); for restenosis after PCI: treatment 2 weeks before and 4 weeks after PCI
Description: as §1, §3

[4] = Anti-inflammatory activity (preclinical comparison)
QTc interval = assay: Clinical trial: QTc interval; type: in vivo, human

| SMILES | antioxidant properties [1] | lumen volume change of reference vessels ([2]; 70 mg once a day) [mm3] | lumen volume change of reference vessels ([2]; 140 mg once a day) | lumen volume change of reference vessels ([2]; 280 mg once a day) | lumen dimensions of the reference segments ([2]; in contrast to probucol) | mean minimal luminal area ([3]; 70 mg once a day for six weeks) [mm2] | mean minimal luminal area ([3]; 140 mg once a day for six weeks) [mm2] | mean minimal luminal area ([3]; 280 mg once a day for six weeks, p<0.05 vs. placebo) [mm2] | luminal area at the site of angioplasty ([3]; at two weeks, p<0.05) | inhibition of VCAM-1 gene expression (VCAM-1) | inhibition of MCP-1 gene expression (MCP-1) | rate of angiographic restenosis in stented arteries (stented arteries; combined Compound A arms (70, 140, 280 mg once a day)) [%] | restenosis rate reduction (stented arteries; combined Compound A arms) [%] | restenosis after PCI (stented arteries) | activity as an anti-inflammatory agent [4] | prolongation of the QTc interval (QTc interval) | lumen volume change of reference vessels ([2]; probucol 500 mg twice a day) [mm3] | mean minimal luminal area ([3]; probucol 500 mg twice a day for six weeks) [mm2] | restenosis rate reduction (stented arteries; probucol 500 mg twice a day) [%] | rate of angiographic restenosis in stented arteries (stented arteries; probucol 500 mg twice a day) [%] |
| --- | --- | --- | --- | --- | --- | --- | --- | --- | --- | --- | --- | --- | --- | --- | --- | --- | --- | --- | --- | --- |
| CC(C)(Sc1cc(C(C)(C)C)c(O)c(C(C)(C)C)c1)Sc1cc(C(C)(C)C)c(OC(=O)CCC(=O)O)c(C(C)(C)C)c1 [Compound A, Butanedioic acid, mono [4-[[1-[[3,5-bis(1,1-dimethylethyl)-4-hydroxyphenyl]thio]-1-methylethyl]thio]2,6-bis(1,1-dimethylethyl)phenyl]ester] | equipotent to probucol | −2.4 | +3.5 mm3 | +1.8 mm3 | surprising improvement | 2.75 | 3.17 | 3.36 | dose response improvement | very active inhibitor | very active inhibitor | 26.0 | 31 | reduce restenosis | consistently very effective | without causing prolongation |  |  |  |  |
| CC(C)(Sc1cc(C(C)(C)C)c(O)c(C(C)(C)C)c1)Sc1cc(C(C)(C)C)c(O)c(C(C)(C)C)c1 [Probucol, probucol, reference compound] |  |  |  |  |  |  |  |  |  | inactive | inactive |  |  | reduce restenosis |  |  | −0.2 | 3.69 | 32 | 25.5 |
